Laboratory results reported in ChEMBL document CHEMBL4622872, “Discovery of DS-1971a, a Potent, Selective NaV1.7 Inhibitor” (J Med Chem, 2020).
Values after ≈ are worked out from the molar mass of the structure shown.

Experiments:
[1] = Distribution coefficient, log D of the compound in 1-octanol and PBS buffer at pH 7.4 measured after 30 mins by LC-MS analysis; format: physicochemical; conditions: 1-octanol/PBS buffer
[2] = Aqueous thermodynamic solubility of the compound at pH 6.8 measured after 4 hrs by UV-HPLC analysis; format: physicochemical; conditions: buffer, pH 6.8; read-out: Therm_solubility
[3] = Stability of the compound in mouse liver microsomes assessed as parent compound remaining measured after 0.5 hrs; format: ADME, Microsome; conditions: mouse liver microsomes, read-out: Stability

Work on `Cn1nccc1[C@H]1CCCC[C@@H]1Oc1cc(F)c(S(=O)(=O)Nc2ccncn2)c(F)c1` (racemic) yielded a logD at 0.5 h [1] of 0.1, a solubility thermodynamic at 4 h [2] of 1800 µM (≈ 809 µg/mL) and a remaining at 0.5 h [3] of 77%.
`Cn1nccc1[C@H]1CCC[C@@H]1Oc1ccc(S(=O)(=O)Nc2ccncn2)c(F)c1F` (racemic) showed a logD at 0.5 h [1] of 0.4, a solubility thermodynamic at 4 h [2] of 550 µM (≈ 240 µg/mL) and a remaining at 0.5 h [3] of 82%.
